Measured values taken from ChEMBL document CHEMBL6120939, “STATs, promising targets for the treatment of autoimmune and inflammatory diseases” (Eur J Med Chem, 2024).

Columns and labels:
[1] = Inhibition of C57BL/6 mouse Th17 cell differentiation from CD4+ T cells assessed as reduction in IL-17a mRNA expression incubated for 96 hrs by qPCR analysis; type: functional, cell-based; settings: C57BL/6, Th17, 96 h
Mus musculus [2] = assay: Anti-asthmatic activity in OVA-induced ip dosed female BALB/c mouse model assessed as reduction in pulmonary IL-13 level administered for 30 min measured after 21 days by ELISA; type: functional, organism-based
Rattus norvegicus = assay: Antiinflammatory activity against TNBS-induced colitis in Sprague-Dawley rat model assessed as reduction in colon TNFalpha level at 1 mg/kg, po administered for 5 days by ELISA; type: functional, organism-based; settings: 120 h
Mus musculus [3] = assay: Anti-inflammatory activity against DSS-induced acute colitis C57BL/6J mouse model assessed as reduction in IL-1beta level in colon at 10 to 20 mg/kg, po measured for 7 days by ELISA analysis; type: functional, organism-based; settings: 168 h
[4] = target: Signal transducer and activator of transcription 3 (Homo sapiens, UniProt P40763); assay: Inhibition of STAT3 phosphorylation in human HepG2 cells by immuno-fluorescence analysis; type: cell-based
Chain of Signal transducer and activator of transcription 3 (P40763 whole entry): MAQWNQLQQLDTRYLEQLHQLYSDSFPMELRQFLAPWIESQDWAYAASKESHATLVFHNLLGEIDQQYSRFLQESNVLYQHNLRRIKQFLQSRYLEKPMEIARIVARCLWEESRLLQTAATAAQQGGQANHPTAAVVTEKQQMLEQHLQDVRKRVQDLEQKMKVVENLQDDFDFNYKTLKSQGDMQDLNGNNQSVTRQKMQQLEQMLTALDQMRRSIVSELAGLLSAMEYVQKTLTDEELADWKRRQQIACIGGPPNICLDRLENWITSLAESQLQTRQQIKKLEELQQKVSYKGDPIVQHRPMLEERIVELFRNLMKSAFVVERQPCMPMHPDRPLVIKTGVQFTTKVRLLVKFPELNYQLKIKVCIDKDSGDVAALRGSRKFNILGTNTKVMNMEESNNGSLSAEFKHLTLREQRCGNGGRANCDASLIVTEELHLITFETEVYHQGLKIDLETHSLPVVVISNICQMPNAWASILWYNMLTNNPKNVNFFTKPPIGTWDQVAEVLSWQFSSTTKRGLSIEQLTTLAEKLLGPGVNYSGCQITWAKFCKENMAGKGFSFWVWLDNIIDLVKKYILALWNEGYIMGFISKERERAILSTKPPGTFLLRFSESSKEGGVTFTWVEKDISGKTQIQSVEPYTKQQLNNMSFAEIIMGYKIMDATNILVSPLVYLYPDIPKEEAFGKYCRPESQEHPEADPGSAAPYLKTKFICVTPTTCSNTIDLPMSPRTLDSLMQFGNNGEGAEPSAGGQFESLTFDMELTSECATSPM

With CN(C)C(=O)Oc1cccc2c1C(=O)c1cccc(S(N)(=O)=O)c1C2=O the IC50 [1] was 220 nM.

For NC(=O)c1cnc(NCCc2ccc(O)c(Cl)c2)nc1NCc1ccccc1, the IC50 (Mus musculus [2]) was 21 nM.

Work on COc1ccc(S(=O)(=O)Nc2cc(-c3c(O)ccc4ccccc34)c(O)c3ccccc23)cc1 [C-188-9] yielded an IC50 (Rattus norvegicus) of 4000 nM.

Cc1ccc(S(=O)(=O)OCC(=O)Nc2ccc(C(=O)O)c(O)c2)cc1 showed an IC50 (Rattus norvegicus) of 86000 nM.

With NS(=O)(=O)c1cccc2c1C(=O)c1cccc(O)c1C2=O the IC50 [1] was 180 nM.

NC(=O)c1cnc(Nc2ccc(N3CCOCC3)cc2)nc1NCc1c(F)ccc(F)c1F showed an IC50 (Mus musculus [2]) of 0.7 nM.

Work on Cc1cc(OCCCS(C)(=O)=O)cc(C)c1-c1cccc(COc2ccc3c(c2)OC[C@H]3CC(=O)O)c1 [FASIGLIFAM] yielded an IC50 (Mus musculus [3]) of 4740 nM.

CC1CC(=O)c2c(ccc3c2C(=O)c2cccc(O)c2C3=O)C1 (stereo not drawn) gave an IC50 [4] of 12200 nM.
